Reference: patent publication US5612344A, “Triazoloquinazolines for the treatment of central nervous disorders” (BASF Aktiengesellschaft, priority 1992, dated 1997)

What follows are compounds tested against AMPA receptors (assay: Binding of 3H-AMPA (displacement from rat cerebra membrane material)). Settings: displacement of 3H-AMPA, rat cerebra membranes, pH 7.1, on ice 60 minutes.
Description: (§1) The pharmacological activity of the compounds I according to the invention was investigated on isolated membrane material from rat cerebra. To do this, the membrane material was treated in the presence of the compounds according to the invention with the radiolabeled substances ^3 H-2-amino-3-hydroxy-5-methyl-4-isoxazolepropionic acid (^3 H-AMPA) and ^3 H-5,7-dichlorokynurenic acid, these binding to specific receptors (AMPA and NMDA (N-methyl-D-aspartate) receptors respectively). Subsequently the radioactivity on the treated membranes was measured by scintillation counting. The amounts of bound ^3 H-AMPA and ^3 H-5,7-dichlorokynurenic acid, or in each case the amounts of these radiolabeled substances displaced, were determined from the bound radioactivity. The dissociation constant KI (I=inhibitor) which results from this and which is a measure of the displacing effect of the active substance according to the invention was found by iterative non-linear regression analysis using the statistical analysis system (SAS) on an IBM computer similar to the "ligand" program of P. J. Munson and D. Rodbard (Analytical Biochem., […], Ligand: Versatile Computerized Approach for Characterization of Ligand Binding Systems).
1. Binding of ^3 H-2-amino-3-hydroxy-5-methyl-4-isoxazolepropionic acid (^3 H-AMPA)
To prepare the membrane material, freshly removed rat cerebra were homogenized together with 15 times the volume of a buffer solution A composed of 30 mM α,α,α-tris(hydroxymethyl)methylamine hydrochloride (TRIS-HCl) and 0.5 mM ethylenediaminetetraacetic acid (EDTA), pH 7.4, using an Ultra-Turrax. […]
For the binding assay, the protein material was thawed at 37° C. and washed twice by centrifuging at 48,000 g (20 minutes) and subsequently suspending in a buffer solution B composed of 50 mM TRIS-HCl, 0.1M potassium thiocyanate and 2.5 mM calcium chloride, pH 7.1. […] The radioactivity of the bound ^3 H-AMPA in the membrane material was measured by scintillation counting and then the KI was determined by subjecting the displacement plots to regression analysis.

Ki [µM]	Structure (SMILES)
1.3	O=C(O)c1nc2c3c(Cl)cc(Cl)cc3nc(=O)n2[nH]1 [8,10-Dichloro-1,2,4-triazolo[1,5-c]-quinazolin-5-one-2-carboxylic acid]
1.4	O=C(O)c1nc2c3ccc(C(F)(F)F)cc3nc(=O)n2[nH]1 [8-Trifluoromethyl-1,2,4-triazolo[1,5-c]-quinazolin-5-one-2-carboxylic acid]
2.6	O=C(O)c1nc2c3ccc([N+](=O)[O-])cc3nc(=O)n2[nH]1 [8-Nitro-1,2,4-triazolo[1,5-c]-quinazolin-5-one-2-carboxylic acid]

These compounds were tested against T1, NMDA (N-methyl-D-aspartate) receptors (Rattus norvegicus, UniProt P35439) (assay: Binding of 3H-5,7-dichlorokynurenic acid (displacement from rat cerebra membrane material)). Settings: displacement of 3H-5,7-dichlorokynurenic acid, rat cerebra membranes, pH 7.4, on ice 30 minutes.
T1 construct: isolated membrane material from rat cerebra; from tissue; host or cells: rat cerebrum membranes
Description: as §1
2. Binding of ^3 H-5,7-dichlorokynurenic acid
To prepare the membrane material, freshly removed rat cerebra were homogenized together with about 10 times the volume of a buffer solution A composed of 50 mM TRIS-HCl and 10 mM EDTA, pH 7.4. The suspension was centrifuged at 48,000 g for 20 minutes. […]
For the binding assay, the protein material was thawed at 37° C. and washed twice by centrifuging at 48,000 g (20 minutes) and subsequently suspending in a buffer solution B composed of 50 mM TRIS-HCl, pH 7.4. […] The radioactivity of the ^3 H-5,7-dichlorokynurenic acid bound to the membranes in the sediment was measured, and the KI was obtained by subjecting the displacement plots to regression analysis.

Ki [µM]	Structure (SMILES)
0.2	O=C(O)c1nc2c3c(Cl)cc(Cl)cc3nc(=O)n2[nH]1 [8,10-Dichloro-1,2,4-triazolo[1,5-c]-quinazolin-5-one-2-carboxylic acid]
0.09	Cc1cc2nc(=O)n3[nH]c(C(=O)O)nc3c2cc1C [8,9-Dimethyl-1,2,4-triazolo[1,5-c]-quinazolin-5-one-2-carboxylic acid]
0.16	CCOC(=O)c1nc2c3cc(C)c(C)cc3nc(=O)n2[nH]1 [Ethyl 8,9-dimethyl-1,2,4-triazolo-[1,5-c]-quinazolin-5-one-2-carboxylate]
